Columns and labels:
Format in all cases: in vivo
common chickweed [1] = assay: Test Example 3: herbicidal effects in soil treatment; details: dose 3.2 g/a
Procedure, shortened: (§1)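 Seeds were sown in sterilized diluvial soil and covered with about 1.5 cm of soil. Compounds, formulated as emulsifiable concentrates and diluted with water, were sprayed evenly over the soil surface at set doses in g/a. Herbicidal effect was scored on a rating scale three weeks later.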

beadstraw [2] = assay: as above; details: dose 3.2 g/a
Procedure, shortened: as §1

redroot pigweed [3] = assay: as above; details: dose 3.2 g/a
Procedure, shortened: as §1

common lambsquater [4] = assay: as above; details: dose 3.2 g/a
Procedure, shortened: as §1

common ragweed [5] = assay: as above; details: dose 3.2 g/a
Procedure, shortened: as §1

velvetleaf [6] = assay: as above; details: dose 3.2 g/a
Procedure, shortened: as §1

Italian ryegrass [7] = assay: as above; details: dose 3.2 g/a
Procedure, shortened: as §1

giant foxtail [8] = assay: as above; details: dose 3.2 g/a
Procedure, shortened: as §1

water foxtail [9] = assay: as above; details: dose 3.2 g/a
Procedure, shortened: as §1

barnyardgrass [10] = assay: as above; details: dose 3.2 g/a
Procedure, shortened: as §1

posumbu knotweed [11] = assay: as above; details: dose 3.2 g/a
Procedure, shortened: as §1

large crabgrass [12] = assay: as above; details: dose 3.2 g/a
Procedure, shortened: as §1

transplanted rice = assay: Test Example 1: preemergence treatment under submerged conditions, effect on crop; details: dose 2.52 g/a
Procedure, shortened: (§2)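 Weed seeds and 2.5-leaf rice seedlings shared each flooded cup of alluvial soil. Dosing, expressed as g per are, was by pouring water-diluted emulsifiable concentrate onto the surface on sowing day. Mortality was graded 0 to 5 after three weeks' growth.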

ducksalad [13] = assay: Test Example 1: herbicidal effects in preemergence treatment under submerged conditions; details: dose 2.52 g/a
Procedure, shortened: as §2

bulrush [14] = assay: as above; details: dose 2.52 g/a
Procedure, shortened: as §2

barnyardgrass [15] = assay: as above; details: dose 2.52 g/a
Procedure, shortened: as §2

common chickweed [16] = assay: Test Example 4: herbicidal effect in foliage treatment; details: dose 3.2 g/a, three weeks after application
Procedure, shortened: (§3)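 Weeds and crops sown in sterilized diluvial soil under ~1.5 cm cover and grown in greenhouse at 25 to 30° C. At 14 days, water-diluted emulsifiable concentrate sprayed onto foliage at set doses (g/a); herbicidal effect scored on a rating scale three weeks after application.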

beadstraw [17] = assay: as above; details: dose 3.2 g/a, three weeks after application
Procedure, shortened: as §3

redroot pigweed [18] = assay: as above; details: dose 3.2 g/a, three weeks after application
Procedure, shortened: as §3

common lambsquater [19] = assay: as above; details: dose 3.2 g/a, three weeks after application
Procedure, shortened: as §3

common ragweed [20] = assay: as above; details: dose 3.2 g/a, three weeks after application
Procedure, shortened: as §3

velvetleaf [21] = assay: as above; details: dose 3.2 g/a, three weeks after application
Procedure, shortened: as §3

Italian ryegrass [22] = assay: as above; details: dose 3.2 g/a, three weeks after application
Procedure, shortened: as §3

giant foxtail [23] = assay: as above; details: dose 3.2 g/a, three weeks after application
Procedure, shortened: as §3

water foxtail [24] = assay: as above; details: dose 3.2 g/a, three weeks after application
Procedure, shortened: as §3

barnyardgrass [25] = assay: as above; details: dose 3.2 g/a, three weeks after application
Procedure, shortened: as §3

posumbu knotweed [26] = assay: as above; details: dose 3.2 g/a, three weeks after application
Procedure, shortened: as §3

large crabgrass [27] = assay: as above; details: dose 3.2 g/a, three weeks after application
Procedure, shortened: as §3

ducksalad [28] = assay: Test Example 2: herbicidal effects during the vegetation period under submerged conditions; details: treatment during the vegetation period under submerged conditions; dose 2.52 g/a
Procedure, shortened: (§4)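 Barnyardgrass, bulrush and ducksalad were co-sown in alluvial soil flooded to 4 cm and grown in a greenhouse at 25 to 30° C. At the 1- or 2-leaf stage, water-diluted emulsifiable concentrates went onto the water surface at set doses (g/a). Herbicidal effect was scored three weeks later on a graded scale.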

bulrush [29] = assay: as above; details: treatment during the vegetation period under submerged conditions; dose 2.52 g/a
Procedure, shortened: as §4

barnyardgrass [30] = assay: as above; details: treatment during the vegetation period under submerged conditions; dose 2.52 g/a
Procedure, shortened: as §4

| Structure (SMILES) | N: common chickweed, herbicidal effect (evaluation scale 0-5) (common chickweed [1]) | O: beadstraw, herbicidal effect (evaluation scale 0-5) (beadstraw [2]) | K: redroot pigweed, herbicidal effect (evaluation scale 0-5) (redroot pigweed [3]) | L: common lambsquater, herbicidal effect (evaluation scale 0-5) (common lambsquater [4]) | J: common ragweed, herbicidal effect (evaluation scale 0-5) (common ragweed [5]) | I: velvetleaf, herbicidal effect (evaluation scale 0-5) (velvetleaf [6]) | H: Italian ryegrass, herbicidal effect (evaluation scale 0-5) (Italian ryegrass [7]) | E: giant foxtail, herbicidal effect (evaluation scale 0-5) (giant foxtail [8]) | G: water foxtail, herbicidal effect (evaluation scale 0-5) (water foxtail [9]) | A: barnyardgrass, herbicidal effect (evaluation scale 0-5) (barnyardgrass [10]) | M: posumbu knotweed, herbicidal effect (evaluation scale 0-5) (posumbu knotweed [11]) | D: large crabgrass, herbicidal effect (evaluation scale 0-5) (large crabgrass [12]) | a: transplanted rice, effect on crop (evaluation scale 0-5) (transplanted rice) | C: ducksalad, herbicidal effect (evaluation scale 0-5) (ducksalad [13]) | B: bulrush, herbicidal effect (evaluation scale 0-5) (bulrush [14]) | A: barnyardgrass, herbicidal effect (evaluation scale 0-5) (barnyardgrass [15]) | N: common chickweed, herbicidal effect (common chickweed [16]) | O: beadstraw, herbicidal effect (beadstraw [17]) | K: redroot pigweed, herbicidal effect (redroot pigweed [18]) | L: common lambsquater, herbicidal effect (common lambsquater [19]) | also measured |
| --- | --- | --- | --- | --- | --- | --- | --- | --- | --- | --- | --- | --- | --- | --- | --- | --- | --- | --- | --- | --- | --- |
| CCC(=O)N(c1ccccc1CN1COC2(CCC2)CC1=O)S(=O)(=O)C(F)(F)F [II-62] | 5 (mortality of 90% or above (nearly complete death)) | 4 (mortality of at least 70% and less than 90%) | 4 (mortality of at least 70% and less than 90%) | 4 (mortality of at least 70% and less than 90%) | 4 (mortality of at least 70% and less than 90%) | 5 (mortality of 90% or above (nearly complete death)) | 5 (mortality of 90% or above (nearly complete death)) | 5 (mortality of 90% or above (nearly complete death)) | 5 (mortality of 90% or above (nearly complete death)) | 5 (mortality of 90% or above (nearly complete death)) | 5 (mortality of 90% or above (nearly complete death)) | 5 (mortality of 90% or above (nearly complete death)) | 0 (mortality of less than 5% (almost ineffective)) | 5 (mortality of 90% or above (nearly complete death)) | 5 (mortality of 90% or above (nearly complete death)) | 5 (mortality of 90% or above (nearly complete death)) | 4 (mortality of at least 70% and less than 90%) | 4 (mortality of at least 70% and less than 90%) | 3 (mortality of at least 40% and less than 70%) | 4 (mortality of at least 70% and less than 90%) | J: common ragweed, herbicidal effect (common ragweed [20]): 4 (mortality of at least 70% and less than 90%); I: velvetleaf, herbicidal effect (velvetleaf [21]): 5 (mortality of 90% or above (nearly complete death)); H: Italian ryegrass, herbicidal effect (Italian ryegrass [22]): 4 (mortality of at least 70% and less than 90%); E: giant foxtail, herbicidal effect (giant foxtail [23]): 5 (mortality of 90% or above (nearly complete death)); G: water foxtail, herbicidal effect (water foxtail [24]): 5 (mortality of 90% or above (nearly complete death)); A: barnyardgrass, herbicidal effect (barnyardgrass [25]): 5 (mortality of 90% or above (nearly complete death)); M: posumbu knotweed, herbicidal effect (posumbu knotweed [26]): 4 (mortality of at least 70% and less than 90%); D: large crabgrass, herbicidal effect (large crabgrass [27]): 5 (mortality of 90% or above (nearly complete death)); C: ducksalad, herbicidal effect (evaluation scale 0-5) (ducksalad [28]): 5 (mortality of 90% or above (nearly complete death)); B: bulrush, herbicidal effect (evaluation scale 0-5) (bulrush [29]): 5 (mortality of 90% or above (nearly complete death)); A: barnyardgrass, herbicidal effect (evaluation scale 0-5) (barnyardgrass [30]): 5 (mortality of 90% or above (nearly complete death)) |
| Cn1nc(Cl)cc1C1(C)CC(=O)N(Cc2ccccc2NS(=O)(=O)C(F)(F)F)CO1 (centres unmarked) [II-59] | 4 (mortality of at least 70% and less than 90%) | 1 (mortality of at least 5% and less than 20%) | 3 (mortality of at least 40% and less than 70%) | 0 (mortality of less than 5% (almost ineffective)) | 3 (mortality of at least 40% and less than 70%) | 1 (mortality of at least 5% and less than 20%) | 5 (mortality of 90% or above (nearly complete death)) | 4 (mortality of at least 70% and less than 90%) | 0 (mortality of less than 5% (almost ineffective)) | 4 (mortality of at least 70% and less than 90%) | 1 (mortality of at least 5% and less than 20%) | 1 (mortality of at least 5% and less than 20%) | 0 (mortality of less than 5% (almost ineffective)) | 5 (mortality of 90% or above (nearly complete death)) | 5 (mortality of 90% or above (nearly complete death)) | 5 (mortality of 90% or above (nearly complete death)) | 4 (mortality of at least 70% and less than 90%) | 5 (mortality of 90% or above (nearly complete death)) | 0 (mortality of less than 5% (almost ineffective)) | 1 (mortality of at least 5% and less than 20%) | J: common ragweed, herbicidal effect (common ragweed [20]): 4 (mortality of at least 70% and less than 90%); I: velvetleaf, herbicidal effect (velvetleaf [21]): 2 (mortality of at least 20% and less than 40%); H: Italian ryegrass, herbicidal effect (Italian ryegrass [22]): 1 (mortality of at least 5% and less than 20%); E: giant foxtail, herbicidal effect (giant foxtail [23]): 1 (mortality of at least 5% and less than 20%); G: water foxtail, herbicidal effect (water foxtail [24]): 5 (mortality of 90% or above (nearly complete death)); A: barnyardgrass, herbicidal effect (barnyardgrass [25]): 5 (mortality of 90% or above (nearly complete death)); M: posumbu knotweed, herbicidal effect (posumbu knotweed [26]): 1 (mortality of at least 5% and less than 20%); D: large crabgrass, herbicidal effect (large crabgrass [27]): 3 (mortality of at least 40% and less than 70%); C: ducksalad, herbicidal effect (evaluation scale 0-5) (ducksalad [28]): 5 (mortality of 90% or above (nearly complete death)); B: bulrush, herbicidal effect (evaluation scale 0-5) (bulrush [29]): 5 (mortality of 90% or above (nearly complete death)); A: barnyardgrass, herbicidal effect (evaluation scale 0-5) (barnyardgrass [30]): 5 (mortality of 90% or above (nearly complete death)) |

— patent US20120029187A1, “HALOALKYLSULFONANILIDE DERIVATIVE” (Nissan Chemical Industries, Ltd., priority 2009, published 2012)
